# Laboratory results as given in patent US7179792B2, “Combination product of a 1,4-benzothiepine 1,1-dioxide compound with at least one other active ingredient and the use of the product” (Sanofi-Aventis Deulschland GmbH, priority 2001, dated 2007).
# System: Male Syrian hamsters (Mesocricetus auratus)
# Assay: Plasma lipid levels in hamsters fed 0.1% cholesterol, oral treatment for 10 days
# Type: in vivo
# Settings: feed + 0.1% CH; for Plasma Cholesterol % / Plasma Triglycerides %: Cholesterol ctr. = 100; for Plasma Cholesterol / Plasma LDL / Plasma Triglycerides: plasma day 10
# Procedure: The synergistic activity of the combination product of a compound of formula I with the other active ingredient was tested in an animal experiment. For this purpose, compound V1 from the compound of formula I was tested: Hamsters were used for the biological testing of the combination product of the invention. Male Syrian hamsters (Mesocricetus auratus) from 8 to 10 weeks of age were used for the experiment. The animals received a standard feed (Teklad 8604M) supplemented with 0.1% cholesterol. An additional normal control group received only standard feed. The test substances were administered orally by gavage once a day on 10 consecutive days, and the control group was treated with the vehicle. Feces were collected on days 5 and 6 of the experiment for bile acid analysis. Retroorbital blood was taken from the animals on day 10 of the experiment, and the lipid levels in the plasma were determined. Radioactive tracers were administered orally to the animals on day 9 of the experiment to determine the cholesterol absorption in analocy to the method described by Zilversmith et al. On day 11 of the experiment, the animals were sacrificed, and the animals' livers were removed for cholesterol analysis and preparation of microsomes. The 7α-hydroxylase activity was determined in the liver microsomes ex vivo by a modified method of Hylemon et al. [table] • K00004513 employed as stock solution (1 mg/ml in EtOH) • Substances are dissolved in 2% EtOH in a final concentration of 5%. • The solutions are then suspended with 0.4% potato starch. • Administration takes place 1× in the morning with 10 ml/kg Feed: Teklad 8604M CH: 032201 M Experimental animals: Male Syrian hamsters (Mesocricetus auratus) supplied by Harlan 100–120 g at the start of adaptation Measured Parameters: • Feed consumption • Animal weight (weekly) • Liver weight • Safety parameters (CH; TG; ALAT/ASAT; AP; HDULDL) • Liver cholesterol (HPLC)=1×500 mg in EtOH/KOH • CYP7 activity (liver microsomes as group pool of 0.5 g each—preparation on day of experiment) • Feces collected on day 5–7 for bile acid determination
structure (smiles),measurement,setting,value
"O=C1[C@H](CC[C@H](O)c2ccc(F)cc2)[C@@H](c2ccc(O)cc2)N1c1ccc(F)cc1 [Ezetimibe, ezetimibe, reference compound]",Plasma Cholesterol %,0.1 mg/kg/d oral,98%
same,Plasma Triglycerides %,0.1 mg/kg/d oral,100%
same,Plasma Cholesterol,0.1 mg/kg/d oral,3.44 mmol/L
same,Plasma LDL,0.1 mg/kg/d oral,1.04 mmol/L
same,Plasma Triglycerides,0.1 mg/kg/d oral,1.63 mmol/L
CCCC[C@]1(CC)CS(=O)(=O)c2ccc(N(C)C)cc2[C@@H](c2cccc(NC(=O)CCCCNC[C@H](O)[C@@H](O)[C@H](O)[C@H](O)CO)c2)[C@H]1O [V1],Plasma Cholesterol %,0.1 mg/kg/d oral,120%
same,Plasma Triglycerides %,0.1 mg/kg/d oral,115%
same,Plasma Cholesterol,0.1 mg/kg/d oral,4.20 mmol/L
same,Plasma LDL,0.1 mg/kg/d oral,1.06 mmol/L
same,Plasma Triglycerides,0.1 mg/kg/d oral,1.87 mmol/L
same,Plasma Cholesterol %,0.3 mg/kg/d oral,114%
same,Plasma Triglycerides %,0.3 mg/kg/d oral,108%
same,Plasma Cholesterol,0.3 mg/kg/d oral,4.01 mmol/L
same,Plasma LDL,0.3 mg/kg/d oral,1.18 mmol/L
same,Plasma Triglycerides,0.3 mg/kg/d oral,1.75 mmol/L
same,Plasma Cholesterol %,1 mg/kg/d oral,92%
same,Plasma Triglycerides %,1 mg/kg/d oral,124%
same,Plasma Cholesterol,1 mg/kg/d oral,3.23 mmol/L
same,Plasma LDL,1 mg/kg/d oral,0.92 mmol/L
same,Plasma Triglycerides,1 mg/kg/d oral,2.02 mmol/L
